Values joined by “and” are separate entries in the source; they are usually repeats but may differ in a detail not shown here. Identical values can stand only once. “Also recorded” adds a separate entry of the source. Like-named read-outs stand apart in the source and are kept apart here.
What was measured:
A2AR + Gs = target: T1, A2AR + Gs (Homo sapiens, UniProt P29274, V229C); assay: [3H]NECA binding in A2AR/Gs-infected Sf9 membranes; settings: for effect of cation on specific [3H]NECA binding / EC50: 10 nM [3H]NECA; for effect of cation on specific [3H]NECA binding: increasing cation concentration; for effect on [3H]NECA high affinity saturation: 2.5 mM cation; for EC50: read-out: half-maximal cation concentration for enhancement of [3H]NECA binding, 100 mM NaCl
T1 construct: Flag (N); TEV site (N); His10 (H10) (C); expressed in transfected cells; host or cells: Sf9 insect cells, baculovirus co-infection (A2AR, Gαs, Gβγ); membranes
T1 sequence (P29274 1-316 V229C limits assumed): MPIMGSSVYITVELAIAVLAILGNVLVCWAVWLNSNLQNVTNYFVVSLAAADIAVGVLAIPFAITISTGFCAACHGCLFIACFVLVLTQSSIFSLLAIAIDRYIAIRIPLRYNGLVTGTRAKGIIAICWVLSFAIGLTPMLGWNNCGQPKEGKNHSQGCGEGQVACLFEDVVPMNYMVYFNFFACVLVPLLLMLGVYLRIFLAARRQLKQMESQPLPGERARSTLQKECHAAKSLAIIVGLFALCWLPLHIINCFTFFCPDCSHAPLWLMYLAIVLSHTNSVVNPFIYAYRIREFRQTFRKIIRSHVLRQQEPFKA
T1 sequence (P63092 whole entry partner): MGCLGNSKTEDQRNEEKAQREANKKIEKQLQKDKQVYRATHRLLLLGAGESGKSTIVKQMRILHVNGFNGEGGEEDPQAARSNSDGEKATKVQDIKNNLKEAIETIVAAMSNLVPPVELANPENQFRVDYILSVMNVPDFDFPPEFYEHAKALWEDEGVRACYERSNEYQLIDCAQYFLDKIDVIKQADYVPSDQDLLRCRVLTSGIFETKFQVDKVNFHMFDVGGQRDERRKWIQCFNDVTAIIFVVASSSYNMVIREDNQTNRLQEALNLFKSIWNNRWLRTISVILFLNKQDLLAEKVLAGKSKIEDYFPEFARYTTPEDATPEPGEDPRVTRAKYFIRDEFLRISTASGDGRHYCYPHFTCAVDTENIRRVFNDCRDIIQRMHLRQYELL
T1 sequence (P62873 whole entry partner): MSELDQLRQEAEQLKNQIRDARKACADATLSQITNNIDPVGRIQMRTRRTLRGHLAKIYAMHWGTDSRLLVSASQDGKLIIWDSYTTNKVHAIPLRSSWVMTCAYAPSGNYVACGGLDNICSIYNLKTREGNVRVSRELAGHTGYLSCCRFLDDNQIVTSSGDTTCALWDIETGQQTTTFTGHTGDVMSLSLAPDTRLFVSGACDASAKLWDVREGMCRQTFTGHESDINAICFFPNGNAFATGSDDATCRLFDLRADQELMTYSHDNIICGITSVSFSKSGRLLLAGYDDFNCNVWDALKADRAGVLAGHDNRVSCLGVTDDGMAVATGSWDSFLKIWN
T1 sequence (P59768 2-68 partner limits assumed): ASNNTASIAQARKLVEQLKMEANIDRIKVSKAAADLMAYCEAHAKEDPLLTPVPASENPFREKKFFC
From the text: The above ^19F NMR observations are further recapitulated in radioligand binding assays in Sf9 cell membranes in which the identical A2AR construct was co-expressed with the heterotrimeric stimulatory G protein, Gαsβγ.
Error bars for radioligand binding assays are defined based on three replicates

BTFMA-labeled A2AR-V229C = target: T2, BTFMA-labeled A2AR-V229C (Homo sapiens, UniProt P29274, V229C); assay: 19F NMR of functional state populations (S1-2, S3, S3'); settings: for effect on active state population: 20 mM cation, saturating NECA and Gαs peptide, 100 mM NaCl; for effect on populations of functional states: apo A2AR in MNG-3 micelles, divalent cations 100–500 mM, KCl with 10 or 100 mM NaCl
T2 construct: alpha-factor secretion leader (Fα-Factor) (N); Flag (N); TEV site (N); His10 (H10) (C); made in house; host or cells: Pichia pastoris SMD 1163
T2 sequence (P29274 1-316 V229C limits assumed): as the sequence (P29274 1-316 V229C limits assumed) above
Method: Here, spectra are deconvolved into three resonances, referred to as S1−2, S3, and S3′, in keeping with previously published work[1].
NMR samples typically consisted of 250 μL volumes of 25–200 μM A2AR-V229C in 50 mM HEPES buffer (pH 7.4) and 100 mM NaCl, doped with 10% D2O. The receptor was stabilized in 0.1% MNG-3 and 0.02% CHS. All ^19F NMR experiments were performed on a 600 MHz Varian Inova spectrometer using a cryogenic triple resonance probe, with the high frequency channel tunable to either ^1H or ^19F. […] Most spectra were acquired with 10,000–50,000 scans depending on sample concentration. Processing typically involved zero filling, and exponential apodization equivalent to 20 Hz line broadening.

apo A2AR-V229C [1] = target: T3, apo A2AR-V229C (Homo sapiens, UniProt P29274, V229C); assay: 25Mg NMR line width binding isotherm and Ca2+ competition; parameters: alpha-factor secretion leader (Fα-Factor) (N); Flag (N); TEV site (N); His10 (H10) (C); made in house; host or cells: Pichia pastoris SMD 1163
T3 sequence (P29274 1-316 V229C limits assumed): as above
Method: The experiment was performed on an Agilent DD2-600 NMR, equipped with a 10 mm low gamma direct detect probe and low frequency pre-amp. The experimental parameters used were as follows: 20 °C, a Larmor frequency of 36.72 MHz, a spectral width of 2.5 kHz, 1.1 s acquisition time, 0.5 s relaxation time, a 30 µs 90° excitation pulse, and between 128 and 2048 scans depending on the signal-to-noise ratio. For the Kd determination of Mg^2+ the following protocol was used: A 1 M MgCl2 solution with 10 mM DyCl3 in D2O was used as a reference and was placed in a 5-mm OD tube. A sample of 1.5 mL of the protein solution was placed in a 10-mm OD NMR tube. The reference tube was thoroughly cleaned and inserted into the 10-mm tube and centered with a plastic cap. Titration volumes of 3–37 µL of 4.64 M MgCl2 were added directly to the 10-mm tube which was then gently mixed using a vortex shaker. The sample was allowed to equilibrate in the magnet for 10 min at the set temperature and the sample was then locked, tuned, gradient shimmed and acquired. […] The sample was allowed to equilibrate at the set temperature in the magnet for 10 min and then locked, tuned, gradient shimmed and acquired. The Kd and Ki values were determined, using GraphPad Prism 6 software, by fitting the data to the formula, y = A × x/(Kd + x), where x represents the cation concentration.

apo A2AR-V229C [2] = target: T3, apo A2AR-V229C; assay: 23Na NMR binding isotherm (line width / chemical shift)
Method: Relaxation dispersions associated with ^23Na CPMG experiments, shown in Fig. 2e, provide an additional measure of cation binding and exchange dynamics.
The experiments were performed on a 600 MHz Varian VNMRS spectrometer using a room temperature XH broadband probe (X-nucleus on the inner coil). […] An external ^23Na reference was prepared by mixing 50 mM NaCl and 50 mM TmCl3 in equal volumes prior to loading into the coaxial insert. […] Information regarding binding can be reliably obtained by observing the shift of the free peak and line broadening associated with fast exchange between “free” and “bound” states.

| SMILES | effect of cation on specific [3H]NECA binding (A2AR + Gs) | effect on active state population (BTFMA-labeled A2AR-V229C) | effect on populations of functional states (BTFMA-labeled A2AR-V229C) | also measured |
| --- | --- | --- | --- | --- |
| [Cl-].[Cl-].[Zn+2] [Zn^2+, ZnCl2] | reduce high affinity binding; also recorded: reduced binding; also recorded: no positive allosteric effects |  |  |  |
| [Cl-].[Cl-].[Mg+2] [Mg^2+, MgCl2] | significantly enhance | detectable increase in the proportion of active states; also recorded: obvious increase in the active S3′ state population | shift the equilibrium of apo A2AR toward the active states | effect on [3H]NECA high affinity saturation (A2AR + Gs): enhance maximal specific [^3H]NECA binding and affinity (Kd); EC50 (A2AR + Gs): 350 to 400 µM; EC50 (A2AR + Gs; listed as Mg2+): 350 µM; Kd (apo A2AR-V229C [1]; 50 µM apo-A2AR-V229C, 100 mM Na+, N=1, fitting error, read-out: dissociation constant Kd of MgCl2): 60 ± 15 mM |
| [Cl-].[Na+] [sodium, NaCl] |  |  | shifts the equilibrium toward the inactive ensemble | Kd (apo A2AR-V229C [2]; read-out: dissociation constant Kd of sodium, apo A2AR-V229C 50 μM, line width-based isotherm, 10–1000 mM NaCl): 60 mM and ~60 mM |
| [Fe+2] [Fe^2+] | no positive allosteric effects | did not |  |  |
| NC(N)=NC(=O)c1nc(Cl)c(N2CCCCCC2)nc1N [HMA, 5-(N,N-hexamethylene)amiloride, reference compound] |  |  |  | competition with sodium in 23Na NMR binding isotherm (apo A2AR-V229C [2]; 100 mM NaCl, stoichiometric equivalents of HMA): compete with sodium |
| [Ca+2].[Cl-].[Cl-] [Ca^2+, CaCl2] | significantly enhance | detectable increase in the proportion of active states | shift the equilibrium of apo A2AR toward the active states | effect on [3H]NECA high affinity saturation (A2AR + Gs): enhance maximal specific [^3H]NECA binding and affinity (Kd); EC50 (A2AR + Gs): 350 to 400 µM; EC50 (A2AR + Gs; listed as Ca2+): 350 µM; Ki (apo A2AR-V229C [1]; 50 mM 25Mg2+, increasing CaCl2, 50 µM apo-A2AR-V229C, read-out: Ki of Ca2+ displacement of Mg2+): 98 ± 41 mM |
| [Cl-].[K+] [KCl] |  |  | no significant change |  |

Reference: PMC5893540, “Mechanistic insights into allosteric regulation of the A2A adenosine G protein-coupled receptor by physiological cations” (Nature Communications, 2018)
